Data: US11572341B2, “Biguanide compound and use thereof” (ImmunoMet Therapeutics Inc., priority 2014, dated 2023)
Like-named read-outs stand apart in the source and are kept apart here.

Columns and labels:
HCT116 cells = test: Inhibitory effect against cancer cell proliferation (MTT); assay type: cell-based, human; conditions: read-out: IC50 (uM) @ HCT116
Procedure: The formazane crystals thus formed were dissolved using dimethyl sulfoxide (DMSO) and absorbance of the solution was measured at 560 nm. After culturing for 48 hours, […] synthesized in Examples was indicated as cell viability (%) according to each treated concentration.

AMPKa [pT172] = test: AMPKa activation [pT172] in MCF7 cell; assay type: cell-based
[1] = Homo sapiens, HCT-116, HCT116, MTT, 48 hours

SMILES | IC50 (HCT116 cells; [1]) | AMPKa activation [pT172] (Unit/ml) @ MCF7 cell (AMPKa [pT172]; 5 uM) | AMPKa activation [pT172] (Unit/ml) @ MCF7 cell (AMPKa [pT172]; 10 uM) | AMPKa activation [pT172] (Unit/ml) @ MCF7 cell (AMPKa [pT172]; 50 uM) | IC50 (HCT116 cells; Homo sapiens, HCT-116, 48 h) | IC50 (HCT116 cells; HCT116, MTT, 48 hours)
CC1CCN(C(=N)NC(=N)Nc2ccc(OC(F)(F)F)c(F)c2)CC1.Cl [Example 59, N1-(4-methyl)piperidin-N5-(3-fluoro-4-trifluoromethoxy)phenyl Biguanide Hydrochloride] | 2.3 µM | 9.8 Unit/ml | 13.3 Unit/ml | cell death |  | 
Cl.N=C(N)NC(=N)NCCc1ccc(O)cc1 [Example 138, N1-(4-hydroxy)phenethyl Biguanide Hydrochloride] | > 100 µM | 3.7 Unit/ml | 3.7 Unit/ml | 4.2 Unit/ml |  | 
Cl.N=C(N)NC(=N)N1CCCCCC1 [Example 139, N1-azepane Biguanide Hydrochloride] | > 100 µM | 5.7 Unit/ml | 5.8 Unit/ml | 10.9 Unit/ml |  | 
CC1CC(C)CN(C(=N)NC(=N)Nc2ccc(F)c(C(F)(F)F)c2)C1.Cl (centres unmarked) [Example 65, N1-(3,5-dimethyl)piperidin-N5-(3-trifluoromethyl-4-fluoro)phenyl Biguanide Hydrochloride] | 2.5 µM | 15.0 Unit/ml | 20.1 Unit/ml | cell death |  | 
CC1CCN(C(=N)NC(=N)Nc2ccc(Cl)c(C(F)(F)F)c2)CC1.Cl [Example 58, N1-(4-methyl)piperidin-N5-(3-trifluoromethyl-4-chloro)phenyl Biguanide Hydrochloride] | 2.3 µM | 2.5 Unit/ml | 5.0 Unit/ml | cell death |  | 
Cl.N=C(N)NC(=N)Nc1ccc(Cl)cc1 [Example 110, N1-(4-chloro)phenyl Biguanide Hydrochloride] |  |  |  | 3.9 Unit/ml | 97.2 µM | 
CCCN(CC)C(=N)NC(=N)N(CCC)CCC.Cl [Example 7, N1,N1-dipropyl-N5-propyl-N5-ethyl Biguanide Hydrochloride] | > 100 µM | 16.2 Unit/ml | 22.3 Unit/ml | 34.6 Unit/ml |  | 
Cl.N=C(N)NC(=N)Nc1ccccc1C(F)(F)F [Example 119, N1-(2-trifluoromethyl)phenyl Biguanide Hydrochloride] | 3.5 µM | 6.9 Unit/ml | 8.8 Unit/ml | 8.5 Unit/ml |  | 
Cl.N=C(N)N/C(=N/C1CCCCCC1)NCc1ccc(Cl)cc1 [Example 98, N1-(4-chloro)benzyl-N2-cycloheptyl Biguanide Hydrochloride] | 49.2 µM | 7.2 Unit/ml | 9.6 Unit/ml | 37.5 Unit/ml |  | 
CCOC1CCN(C(=N)NC(=N)Nc2ccc(OC(F)(F)F)cc2)CC1.Cl [Example 26, N1-(4-ethoxy)piperidin-N5-(4-trifluoromethoxy)phenyl Biguanide Hydrochloride] | 9.7 µM | 3.6 Unit/ml | 6.6 Unit/ml | cell death |  | 
CC1CCCN(C(=N)NC(=N)Nc2cccc(C(F)(F)F)c2)C1.Cl (centres unmarked) [Example 51, N1-(3-methyl)piperidin-N5-(3-trifluoromethyl)phenyl Biguanide Hydrochloride] | 6.6 µM | 12.5 Unit/ml | 15.2 Unit/ml | cell death |  | 
CC(C)(C)N(Cc1ccccc1)C(=N)NC(=N)Nc1ccc(Cl)cc1.Cl [Example 10, N1-(4-chloro)phenyl-N5-t-butyl-N5-benzyl Biguanide Hydrochloride] | > 100 µM |  |  | 10.4 Unit/ml |  | 
Cl.N=C(N)NC(=N)N1CCCC1 [Example 126, N1-pyrrolidine Biguanide Hydrochloride] | > 100 µM | 6.1 Unit/ml | 6.4 Unit/ml | 10.7 Unit/ml |  | 
Cl.N=C(NCc1cccc(C(F)(F)F)c1)NC(=N)Nc1cccnc1 [Example 43, N1-3-pyridin-N5-(3-trifluoromethyl)benzyl Biguanide Hydrochloride] | 100 µM | 3.0 Unit/ml | 4.3 Unit/ml | 7.6 Unit/ml |  | 
CCCCCCN(CCCCCC)C(=N)NC(=N)N.Cl [Example 133, N1,N1-dihexyl Biguanide Hydrochloride] | > 100 µM |  |  | 7.1 Unit/ml |  | 
CC(=O)Nc1ccc(NC(=N)NC(=N)N)cc1.Cl [Example 125, N1-4-(N-acetylamino)phenyl Biguanide Hydrochloride] | > 100 µM |  |  | 5.0 Unit/ml |  | 
Cl.N=C(NC(=N)N1CC=CC1)N1CC=CC1 [Example 67, N1-2,5-dihydro-1H-pyrrol-N5-2,5-dihydro-1H-pyrrole Biguanide Hydrochloride] | 147 µM | 3.2 Unit/ml | 2.9 Unit/ml | 4.8 Unit/ml |  | 
CN1CCN(C(=N)NC(=N)NCc2ccc(Cl)cc2)CC1.Cl [Example 31, N1-(4-methyl)piperazin-N5-(4-chloro)benzyl Biguanide Hydrochloride] | > 100 µM | 2.5 Unit/ml | 3.6 Unit/ml | 6.1 Unit/ml |  | 
CCCN(CCC)C(=N)NC(=N)N(C1CCCCC1)C1CCCCC1.Cl [Example 15, N1,N1-dipropyl-N5,N5-dicyclohexyl Biguanide Hydrochloride] | > 100 µM |  |  | 6.1 Unit/ml |  | 
Cl.N=C(N)N/C(=N/c1ccc(Br)cc1)NCCc1ccccc1 [Example 95, N1-phenethvl-N2-(4-bromo)phenyl Biguanide Hydrochloride] | 14.1 µM | 4.9 Unit/ml | 6.8 Unit/ml | 23.6 Unit/ml |  | 
CC1CCN(C(=N)NC(=N)Nc2cccc(OC(F)(F)F)c2)CC1.Cl [Example 49, N1-(4-methy)piperidin-N5-(3-trifluoromethoxy)phenyl Biguanide Hydrochloride] | 5.1 µM | 9.3 Unit/ml | 13.7 Unit/ml | cell death |  | 
CC1CCN(C(=N)NC(=N)Nc2ccc(F)c(C(F)(F)F)c2)CC1.Cl [Example 54, N1-(4-methyl)piperidin-N5-(3-trifluoromethyl-4-fluoro)phenyl Biguanide Hydrochloride] | 6.7 µM | 4.9 Unit/ml | 8.9 Unit/ml | cell death |  | 
COc1ccc(NC(=N)NC(=N)N)cc1.Cl [Example 120, N1-(4-methoxy)phenyl Biguanide Hydrochloride] | > 100 µM |  |  | 8.1 Unit/ml |  | 
Cl.N=C(N)NC(=N)NCc1ccc(OC(F)(F)F)cc1 [Example 142, N1-(4-trifluoromethoxy)benzyl Biguanide Hydrochloride] | 73.6 µM | 4.7 Unit/ml | 6.0 Unit/ml | 7.2 Unit/ml |  | 
Cl.N=C(NC(=N)N1CCCC1)Nc1ccc(F)c(Cl)c1 [Example 77, N1-pyrrolidin-N5-(3-chloro-4-fluoro)phenyl Biguanide Hydrochloride] | 50.6 µM | 4.5 Unit/ml | 5.7 Unit/ml | 13.9 Unit/ml |  | 
Cl.N=C(NC(N)=NCCc1cccs1)N1CCCCC1 [Example 99, N1-piperidin-N2-(2-thiophen-2-yl)ethyl Biguanide Hydrochloride] |  | 4.0 Unit/ml | 2.9 Unit/ml | 3.6 Unit/ml |  | > 100 µM
